{
  "source": "patent US9128097B2",
  "about": "“Method and kit for assessing viable cells” (ChemoMetec A/S, priority 2008, dated 2015)",
  "key": {"HEK293 cells": {"tested_on": "HEK293 cells", "assay": "NAM/PI staining of outgrown HEK293 cells, fluorescence microscopy", "format": "cell-based, Human", "details": "10 μg/mL NAM", "protocol": "Materials and Methods. HEK293 cells were grown at 37° C. in a humidified air atmosphere with 5% CO2 in DMEM (Invitrogen, #31966) supplemented with 10% heat-inactivated fetal bovine serum (Invitrogen, #10108-165). Cells were harvested with 0.5 mL of trypsin (Invitrogen, #25300) and neutralized with 5 mL medium (DMEM+10% FCS) two days after they had reached full confluency. These outgrown HEK293 cells (cell density 1.6×10^6, 78% viable determined using the NC-100 NucleoCounter system following the manufacturer's (ChemoMetec) protocol) were stained with 10 μg/mL NAM (Sigma, #01665). Another cell sample were treated with 0.25% Triton X-100 (Sigma, #T9284) and hereafter added 10 μg/mL NAM. After staining, each cell sample was loaded into a NucleoCassette, containing the DNA stain propidium iodide (PI). The cells were investigated using an Olympus IX50 fluorescence microscope, and images were captured using a Lumenera CCD camera and in-house developed software. PI and NAM fluorescence were detected using, respectively, U-MWG2 (green long pass: 510-550 nm) and U-MNUA2 (UV band pass, 330-385 nm) filter cubes (Olympus)."}, "[1]": {"tested_on": "bone marrow derived dendritic cells (BM-DCs)", "assay": "Staining of bone marrow derived dendritic cells with labelling agent and PI", "format": "cell-based, murine", "details": "dendritic cells 97% viable; 10 μL NAM (100 μg pr. mL DMSO) to 90 μL cells", "excerpt": "Materials and Methods. Dendritic cells were developed from murine bone marrow derived cells as described by “Lutz, M. B., N. Kukutsch, A. L. Ogilvie, S. Rossner, F. Koch, N. Romani, and G. Schuler. 1999. An advanced culture method for generating large quantities of highly pure dendritic cells from mouse bone marrow. J Immunol Methods 223:77-92”. Bone marrow cells were harvested aseptically in the laminar flow hood as described in example 11. Washed and resuspended bone marrow cells were resuspended in RPMI 1640 (Invitrogen, #61870) supplemented with 10% heat-inactivated fetal bovine serum (Invitrogen, #10108-165), 100 U/mL penicillin and 100 μg/mL streptomycin (Invitrogen, #15140-122). […] 90 μL dendritic cells (cell density 1.2×10^6, 97% viable determined using the NC-100 NucleoCounter system following the manufacturer's (ChemoMetec A/S) protocol) were added 10 μL NAM (N-(9-acridinyl)maleimide, Sigma, #01665, CAS no. 49759-20-8) dissolved in DMSO (100 μg NAM pr. mL DMSO) and mixed by pipetting. […] The cells were investigated using an Olympus IX50 fluorescence microscope, and images were captured using a Lumenera CCD camera and in-house developed software. PI and NAM fluorescence were detected using, respectively, U-MWG2 (green long pass: 510-550 nm) and U-MNUA2 (UV band pass, 330-385 nm) filter cubes (Olympus). […]"}},
  "data": [
    {"compound": "O=C1C=CC(=O)N1c1c2ccccc2nc2ccccc12", "note": "[NAM, N-(9-acridinyl)maleimide]", "values": [
      {"measurement": "staining of Triton X-100 treated cells", "setting": "HEK293 cells; HEK293 cells treated with 0.25% Triton X-100", "result": "NAM negative"},
      {"measurement": "staining of cells versus PI", "setting": "HEK293 cells; outgrown HEK293 cells, 78% viable", "result": "NAM and PI were found to complementary stain the outgrown HEK293 cells"},
      {"measurement": "staining of cells (UV filter) versus PI positive cells", "setting": "[1]", "result": "nearly all the dendritic cells were stained by NAM"}
    ]}
  ]
}
